Source: article PMC5218480 (PLoS ONE, 2017)

Test system: MV-4-11 cells
Assay: Gene expression microarray analysis (Affymetrix PrimeView) and GSEA
Assay type: cell-based, human
Set-up: RFU PODN (11730768_x_at) / Fold change /veh PODN (11730768_x_at) / RFU LINC00158 (11744669_a_at) / Fold change /veh LINC00158 (11744669_a_at) / RFU DUSP10 (11751237_a_at) / Fold change /veh DUSP10 (11751237_a_at) / RFU ID3 (11757404_x_at) / Fold change /veh ID3 (11757404_x_at) / RFU PLEKHG5 (11737974_s_at) / Fold change /veh PLEKHG5 (11737974_s_at) / RFU LRRC4B (11730491_at) / Fold change /veh LRRC4B (11730491_at) / RFU GIMAP4 (11747438_a_at) / Fold change /veh GIMAP4 (11747438_a_at) / RFU KRT8 (11758183_x_at) / Fold change /veh KRT8 (11758183_x_at) / RFU CNN1 (11734310_a_at) / Fold change /veh CNN1 (11734310_a_at) / RFU VPS37D (11726825_at) / Fold change /veh VPS37D (11726825_at) / RFU C10orf10 (11716522_x_at) / Fold change /veh C10orf10 (11716522_x_at) / RFU KIR2DL2 /// KIR2DL4 /// KIR2DL5A /// KIR2DL5B /// KIR2DS1 /// KIR2DS2 /// KIR2DS3 /// KIR2DS4 /// KIR3DL3 /// KIR3DL3 /// KIR3DS1 (11738374_at) / Fold change /veh KIR2DL2 /// KIR2DL4 /// KIR2DL5A /// KIR2DL5B /// KIR2DS1 /// KIR2DS2 /// KIR2DS3 /// KIR2DS4 /// KIR3DL3 /// KIR3DL3 /// KIR3DS1 (11738374_at) / RFU C1QL1 (11718748_at) / Fold change /veh C1QL1 (11718748_at) / RFU TMPRSS4 (11747572_a_at) / Fold change /veh TMPRSS4 (11747572_a_at) / RFU HAMP (11756126_x_at) / Fold change /veh HAMP (11756126_x_at) / RFU RNFT2 (11725882_a_at) / Fold change /veh RNFT2 (11725882_a_at) / RFU NR4A2 (11747474_a_at) / Fold change /veh NR4A2 (11747474_a_at) / RFU ABCC12 (11746883_a_at) / Fold change /veh ABCC12 (11746883_a_at) / RFU TMEM136 (11760407_x_at) / Fold change /veh TMEM136 (11760407_x_at) / RFU CLDN22 /// WWC2 (11732394_at) / Fold change /veh CLDN22 /// WWC2 (11732394_at) / RFU HLA-DPB1 (11760878_x_at) / Fold change /veh HLA-DPB1 (11760878_x_at) / RFU SPINT1 (11716480_a_at) / Fold change /veh SPINT1 (11716480_a_at) / RFU GAP43 (11754022_s_at) / Fold change /veh GAP43 (11754022_s_at) / RFU A4GNT (11735810_at) / Fold change /veh A4GNT (11735810_at) / RFU PRB3 (11715151_x_at) / Fold change /veh PRB3 (11715151_x_at) / RFU TUBB4B (11761932_at) / Fold change /veh TUBB4B (11761932_at) / RFU CAPN14 (11732068_a_at) / Fold change /veh CAPN14 (11732068_a_at) / RFU TMCC2 (11721928_a_at) / Fold change /veh TMCC2 (11721928_a_at) / RFU IRGQ (11745062_a_at) / Fold change /veh IRGQ (11745062_a_at) / RFU FAM174B (11720279_a_at) / Fold change /veh FAM174B (11720279_a_at) / RFU TMPRSS4 (11748680_a_at) / Fold change /veh TMPRSS4 (11748680_a_at) / RFU FAM212B (11763350_a_at) / Fold change /veh FAM212B (11763350_a_at) / RFU PLEKHG5 (11743358_a_at) / Fold change /veh PLEKHG5 (11743358_a_at) / RFU ZSCAN30 (11745921_a_at) / Fold change /veh ZSCAN30 (11745921_a_at) / RFU CMKLR1 (11741424_a_at) / Fold change /veh CMKLR1 (11741424_a_at) / RFU LOC101060620 /// MAPK8IP1 (11723275_at) / Fold change /veh LOC101060620 /// MAPK8IP1 (11723275_at) / RFU SPTSSB (11747773_x_at) / Fold change /veh SPTSSB (11747773_x_at) / RFU PRSS12 (11739890_at) / Fold change /veh PRSS12 (11739890_at) / RFU BIN1 (11741810_x_at) / Fold change /veh BIN1 (11741810_x_at) / RFU WNT11 (11732464_a_at) / Fold change /veh WNT11 (11732464_a_at) / RFU C10orf10 (11716521_a_at) / Fold change /veh C10orf10 (11716521_a_at) / RFU C5orf56 (11738089_at) / Fold change /veh C5orf56 (11738089_at) / RFU CYB561 (11721691_x_at) / Fold change /veh CYB561 (11721691_x_at) / RFU ANKRD19P (11752326_a_at) / Fold change /veh ANKRD19P (11752326_a_at) / RFU OR2T12 /// OR2T33 /// OR2T8 (11738714_s_at) / Fold change /veh OR2T12 /// OR2T33 /// OR2T8 (11738714_s_at) / RFU VCAN (11748164_a_at) / Fold change /veh VCAN (11748164_a_at) / RFU JSRP1 (11732532_at) / Fold change /veh JSRP1 (11732532_at) / RFU KRTAP10-11 (11738290_x_at) / Fold change /veh KRTAP10-11 (11738290_x_at) / RFU MYO3A (11730013_a_at) / Fold change /veh MYO3A (11730013_a_at) / RFU EBF3 (11725865_a_at) / Fold change /veh EBF3 (11725865_a_at) / RFU CAMK2N1 (11719241_x_at) / Fold change /veh CAMK2N1 (11719241_x_at) / RFU C5orf56 (11738088_a_at) / Fold change /veh C5orf56 (11738088_a_at) / RFU OLFML3 (11715873_a_at) / Fold change /veh OLFML3 (11715873_a_at) / RFU LOC100653217 /// NTM (11731650_a_at) / Fold change /veh LOC100653217 /// NTM (11731650_a_at) / RFU MAPK11 (11762145_a_at) / Fold change /veh MAPK11 (11762145_a_at) / RFU FIZ1 (11724087_x_at) / Fold change /veh FIZ1 (11724087_x_at) / RFU OASL (11726364_x_at) / Fold change /veh OASL (11726364_x_at) / RFU SOX15 (11748057_x_at) / Fold change /veh SOX15 (11748057_x_at) / RFU CD79A (11719716_a_at) / Fold change /veh CD79A (11719716_a_at) / RFU HIST1H1D (11736915_at) / Fold change /veh HIST1H1D (11736915_at) / RFU CASKIN2 (11723855_a_at) / Fold change /veh CASKIN2 (11723855_a_at) / RFU LOC730098 (11760151_x_at) / Fold change /veh LOC730098 (11760151_x_at) / RFU OR4N2 (11742367_at) / Fold change /veh OR4N2 (11742367_at) / RFU PRRT2 (11749266_a_at) / Fold change /veh PRRT2 (11749266_a_at) / RFU SNX32 (11753110_a_at) / Fold change /veh SNX32 (11753110_a_at) / RFU CDHR5 (11726645_a_at) / Fold change /veh CDHR5 (11726645_a_at) / RFU RCAN1 (11760418_a_at) / Fold change /veh RCAN1 (11760418_a_at) / RFU FAM167A (11723789_a_at) / Fold change /veh FAM167A (11723789_a_at) / RFU FAM26E (11764081_at) / Fold change /veh FAM26E (11764081_at) / RFU ISYNA1 (11749810_s_at) / Fold change /veh ISYNA1 (11749810_s_at) / RFU ACY1 (11761880_at) / Fold change /veh ACY1 (11761880_at) / RFU 11764098_at / Fold change /veh 11764098_at / RFU SAMD14 (11745864_x_at) / Fold change /veh SAMD14 (11745864_x_at) / RFU NPB (11741838_a_at) / Fold change /veh NPB (11741838_a_at) / RFU TMPRSS6 (11731388_a_at) / Fold change /veh TMPRSS6 (11731388_a_at) / RFU KRTAP10-2 (11738614_at) / Fold change /veh KRTAP10-2 (11738614_at) / RFU ARHGAP8 /// PRR5-ARHGAP8 (11727945_x_at) / Fold change /veh ARHGAP8 /// PRR5-ARHGAP8 (11727945_x_at) / RFU KRTAP5-7 /// NADSYN1 (11734609_at) / Fold change /veh KRTAP5-7 /// NADSYN1 (11734609_at) / RFU RASL12 (11751679_a_at) / Fold change /veh RASL12 (11751679_a_at) / RFU CDKN2B (11736163_a_at) / Fold change /veh CDKN2B (11736163_a_at) / RFU PRF1 (11729649_at) / Fold change /veh PRF1 (11729649_at) / RFU, ZNF638 /// ZNF638-IT1 / Fold change vs veh, ZNF638 /// ZNF638-IT1 / RFU, PANK3 / Fold change vs veh, PANK3 / RFU, SH3YL1 / Fold change vs veh, SH3YL1 / RFU, ZEB2 / Fold change vs veh, ZEB2 / RFU, NRIP1 / Fold change vs veh, NRIP1 / RFU, PTTG1IP / Fold change vs veh, PTTG1IP / RFU, CAPN2 / Fold change vs veh, CAPN2 / RFU, MED14 / Fold change vs veh, MED14 / RFU, SNORA58 / Fold change vs veh, SNORA58 / RFU, C1orf63 / Fold change vs veh, C1orf63 / RFU, LRRFIP1 / Fold change vs veh, LRRFIP1 / RFU, NDUFAF7 / Fold change vs veh, NDUFAF7 / RFU, SLC12A2 / Fold change vs veh, SLC12A2 / RFU, IBTK / Fold change vs veh, IBTK / RFU, ESF1 / Fold change vs veh, ESF1 / Fold change vs veh, TMEM50B / RFU, TAOK1 / Fold change vs veh, TAOK1 / RFU, ACBD3 / Fold change vs veh, ACBD3 / RFU, TMA16 / Fold change vs veh, TMA16 / RFU, RWDD3 / Fold change vs veh, RWDD3 / RFU, BCAT1 / Fold change vs veh, BCAT1 / RFU, EDEM3 / Fold change vs veh, EDEM3 / RFU, TMEM33 / Fold change vs veh, TMEM33 / RFU, WDR75 / Fold change vs veh, WDR75 / RFU, AHCTF1 / Fold change vs veh, AHCTF1 / RFU, TFRC / Fold change vs veh, TFRC / RFU, ZDHHC17 / Fold change vs veh, ZDHHC17 / RFU, NOM1 / Fold change vs veh, NOM1 / RFU, ARL8B / Fold change vs veh, ARL8B / RFU, ZBTB11 / Fold change vs veh, ZBTB11 / RFU, TAMM41 / Fold change vs veh, TAMM41 / RFU, KIAA1704 /// LOC100996395 / Fold change vs veh, KIAA1704 /// LOC100996395 / RFU, ING1 / Fold change vs veh, ING1 / RFU, TRMT61B / Fold change vs veh, TRMT61B / RFU, FUBP3 / Fold change vs veh, FUBP3 / RFU, TP53 / Fold change vs veh, TP53 / RFU, TNKS2 / Fold change vs veh, TNKS2 / RFU, ZFP14 / Fold change vs veh, ZFP14 / RFU, ACTR2 / Fold change vs veh, ACTR2 / RFU, PPP3R1 / Fold change vs veh, PPP3R1 / RFU, PIK3R1 / Fold change vs veh, PIK3R1 / RFU, HNRNPA1 / Fold change vs veh, HNRNPA1 / RFU, RNF170 / Fold change vs veh, RNF170 / RFU, ZNF28 / Fold change vs veh, ZNF28 / RFU, RNGTT / Fold change vs veh, RNGTT / RFU, OGT / Fold change vs veh, OGT / RFU, BRD1 / Fold change vs veh, BRD1 / RFU, MARS / Fold change vs veh, MARS / RFU, ZNF655 / Fold change vs veh, ZNF655 / RFU, FAHD1 / Fold change vs veh, FAHD1 / RFU, BDP1 / Fold change vs veh, BDP1 / RFU, LRRCC1 / Fold change vs veh, LRRCC1 / RFU, ARID1A / Fold change vs veh, ARID1A / RFU, ZNF146 / Fold change vs veh, ZNF146 / RFU, ZNF330 / Fold change vs veh, ZNF330 / RFU, GPN3 / Fold change vs veh, GPN3 / RFU, C9orf123 / Fold change vs veh, C9orf123 / RFU, N4BP2L2 / Fold change vs veh, N4BP2L2 / RFU, ARFIP1 / Fold change vs veh, ARFIP1 / RFU, FAM179B / Fold change vs veh, FAM179B / RFU, BCL10 / Fold change vs veh, BCL10 / RFU, UHRF1BP1L / Fold change vs veh, UHRF1BP1L / RFU, BET1 / Fold change vs veh, BET1 / RFU, CNOT2 / Fold change vs veh, CNOT2 / RFU, ZNF268 / Fold change vs veh, ZNF268 / Fold change vs veh, ZNF507 / RFU, DGCR2 / Fold change vs veh, DGCR2 / RFU, WDSUB1 / Fold change vs veh, WDSUB1 / Fold change vs veh, HSP90B1 /// MIR3652 / RFU, ADSS / Fold change vs veh, ADSS / RFU, GK / Fold change vs veh, GK / RFU, ZNF148 / Fold change vs veh, ZNF148 / RFU, TAF9 / Fold change vs veh, TAF9 / RFU, SLC1A5 / Fold change vs veh, SLC1A5 / RFU, SLMO2 / Fold change vs veh, SLMO2 / RFU, ABCC4 / Fold change vs veh, ABCC4 / RFU, LOC101060439 /// RAP1B / Fold change vs veh, LOC101060439 /// RAP1B / RFU, RFX7 / Fold change vs veh, RFX7 / RFU, GTPBP10 / Fold change vs veh, GTPBP10 / RFU, CNEP1R1 / Fold change vs veh, CNEP1R1 / RFU, BIVM-ERCC5 /// ERCC5 / Fold change vs veh, BIVM-ERCC5 /// ERCC5 / RFU, ILF3 / Fold change vs veh, ILF3 / RFU 11762660_at / Fold change /veh 11762660_at / RFU VCAN (11757783_s_at) / Fold change /veh VCAN (11757783_s_at) / RFU DDX43 (11728927_at) / Fold change /veh DDX43 (11728927_at) / RFU KRT8 (11758188_x_at) / Fold change /veh KRT8 (11758188_x_at) / RFU NKD1 (11759106_at) / Fold change /veh NKD1 (11759106_at) / RFU SRD5A1 (11742802_a_at) / Fold change /veh SRD5A1 (11742802_a_at) / RFU TPSAB1 /// TPSB2 (11721975_s_at) / Fold change /veh TPSAB1 /// TPSB2 (11721975_s_at) / RFU GSTM3 (11746129_a_at) / Fold change /veh GSTM3 (11746129_a_at) / RFU IL23R (11737362_x_at) / Fold change /veh IL23R (11737362_x_at) / RFU TMEM51 (11727254_a_at) / Fold change /veh TMEM51 (11727254_a_at) / RFU PIWIL2 (11732686_x_at) / Fold change /veh PIWIL2 (11732686_x_at) / RFU ORM1 (11744905_x_at) / Fold change /veh ORM1 (11744905_x_at) / RFU CCDC152 (11743942_at) / Fold change /veh CCDC152 (11743942_at) / RFU ECM1 (11717891_a_at) / Fold change /veh ECM1 (11717891_a_at) / RFU IL23R (11748794_a_at) / Fold change /veh IL23R (11748794_a_at) / RFU TNFAIP8L3 (11732012_x_at) / Fold change /veh TNFAIP8L3 (11732012_x_at) / RFU MBOAT4 (11741988_at) / Fold change /veh MBOAT4 (11741988_at) / RFU 11764193_at / Fold change /veh 11764193_at / RFU TMEM53 (11763286_at) / Fold change /veh TMEM53 (11763286_at) / RFU MAGEB2 (11727129_at) / Fold change /veh MAGEB2 (11727129_at) / RFU TMEM200A (11744735_a_at) / Fold change /veh TMEM200A (11744735_a_at) / RFU CCDC152 (11751479_a_at) / Fold change /veh CCDC152 (11751479_a_at) / RFU FAM211A (11726209_a_at) / Fold change /veh FAM211A (11726209_a_at) / RFU RGS16 (11746705_a_at) / Fold change /veh RGS16 (11746705_a_at) / RFU VCAN (11755009_s_at) / Fold change /veh VCAN (11755009_s_at) / RFU RHOB (11743442_s_at) / Fold change /veh RHOB (11743442_s_at) / RFU RGS16 (11720943_a_at) / Fold change /veh RGS16 (11720943_a_at) / RFU RGS16 (11720944_at) / Fold change /veh RGS16 (11720944_at) / RFU, VPS4B / Fold change vs veh, VPS4B / RFU, CREB1 / Fold change vs veh, CREB1 / RFU, DNAJC13 / Fold change vs veh, DNAJC13 / RFU, GNAQ / Fold change vs veh, GNAQ / RFU, CDK5R1 / Fold change vs veh, CDK5R1 / RFU, ZRANB3 / Fold change vs veh, ZRANB3 / RFU, CUL4A / Fold change vs veh, CUL4A / RFU, CCNY / Fold change vs veh, CCNY / RFU, UFL1 / Fold change vs veh, UFL1 / RFU, COG3 / Fold change vs veh, COG3 / RFU, DIAPH2 / Fold change vs veh, DIAPH2 / RFU, SKA2 / Fold change vs veh, SKA2 / RFU, AFF3 / Fold change vs veh, AFF3 / RFU, LMF1 / Fold change vs veh, LMF1 / RFU, IPO11 / Fold change vs veh, IPO11 / RFU, DFFB / Fold change vs veh, DFFB / RFU, FOXP1 / Fold change vs veh, FOXP1 / RFU, CARD8 / Fold change vs veh, CARD8 / RFU, STRN3 / Fold change vs veh, STRN3 / RFU, ADK / Fold change vs veh, ADK / RFU, RASSF2 / Fold change vs veh, RASSF2 / RFU, WIPF1 / Fold change vs veh, WIPF1 / RFU, LARP1B / Fold change vs veh, LARP1B / RFU, RASA1 / Fold change vs veh, RASA1 / RFU, RB1 / Fold change vs veh, RB1 / RFU, PPFIA1 / Fold change vs veh, PPFIA1 / RFU, MAT2A / Fold change vs veh, MAT2A / RFU, CCT5 / Fold change vs veh, CCT5 / RFU, WDR92 / Fold change vs veh, WDR92 / RFU, CUX1 / Fold change vs veh, CUX1 / RFU, TTC7A / Fold change vs veh, TTC7A / RFU, TMEM135 / Fold change vs veh, TMEM135 / RFU, DEPTOR / Fold change vs veh, DEPTOR / RFU, CPM / Fold change vs veh, CPM / RFU, DNAJB6 / Fold change vs veh, DNAJB6 / RFU, CACNA2D3 / Fold change vs veh, CACNA2D3 / RFU, DTX4 / Fold change vs veh, DTX4 / RFU, TFCP2 / Fold change vs veh, TFCP2 / RFU, GMCL1 /// GMCL1P1 / Fold change vs veh, GMCL1 /// GMCL1P1 / RFU, AEBP2 / Fold change vs veh, AEBP2 / RFU, SNHG1 /// SNORD22 /// SNORD25 /// SNORD26 /// SNORD27 /// SNORD28 /// SNORD29 /// SNORD31 / Fold change vs veh, SNHG1 /// SNORD22 /// SNORD25 /// SNORD26 /// SNORD27 /// SNORD28 /// SNORD29 /// SNORD31 / Fold change (Aza/veh), C12orf56 (ProbeSet 11735607_a_at) / Fold change (ACY-1035/veh), C12orf56 (ProbeSet 11735607_a_at) / Fold change (Aza/veh), FGFR1OP (ProbeSet 11751329_s_at) / Fold change (ACY-1035/veh), FGFR1OP (ProbeSet 11751329_s_at) / Fold change (Aza/veh), VPS36 (ProbeSet 11739960_a_at) / Fold change (ACY-1035/veh), VPS36 (ProbeSet 11739960_a_at) / RFU SYPL1 (11715823_x_at) / Fold change /veh SYPL1 (11715823_x_at) / RFU IGFBP7 (11715501_s_at) / Fold change /veh IGFBP7 (11715501_s_at) / RFU REEP3 (11722064_at) / Fold change /veh REEP3 (11722064_at) / RFU IGLL1 (11728026_x_at) / Fold change /veh IGLL1 (11728026_x_at): dose or concentration left out as unconfirmed
Conditions: MV-4-11 cells, 48 hours

In the case of `Nc1ccc(-c2cccs2)cc1NC(=O)c1ccc2c(c1)cc(C1CC1)n2CCN1CCOCC1` [ACY-1035], the “Fold change /veh IL23R (11748794_a_at)” value is reported as 0.98.
